Test results from patent publication US20170226139A1, “CRYSTALLINE SALTS OF (Z)-O-OCTADEC-9-EN-1-YL O,O-DIHYDROGEN PHOSPHOROTHIOATE” (priority 2013, published 2017).
pEC50, pIC50: −log10 of the molar value.

Columns and labels:
[1] = biological target: T1, cloned hERG Potassium Channels expressed in human embryonic kidney cells (Homo sapiens, UniProt Q12809); assay: hERG assay; format: cell-based
T1 construct: expressed in transfected cells; host or cells: human embryonic kidney cells

[2] = biological target: T2, LPA2 receptors from the mouse (Mus musculus, UniProt Q9JL06); assay: Calcium-mobilization assay (FURA-2), mouse LPA2; format: cell-based
T2 construct: expressed in transfected cells
T2 sequence (Q9JL06 whole entry): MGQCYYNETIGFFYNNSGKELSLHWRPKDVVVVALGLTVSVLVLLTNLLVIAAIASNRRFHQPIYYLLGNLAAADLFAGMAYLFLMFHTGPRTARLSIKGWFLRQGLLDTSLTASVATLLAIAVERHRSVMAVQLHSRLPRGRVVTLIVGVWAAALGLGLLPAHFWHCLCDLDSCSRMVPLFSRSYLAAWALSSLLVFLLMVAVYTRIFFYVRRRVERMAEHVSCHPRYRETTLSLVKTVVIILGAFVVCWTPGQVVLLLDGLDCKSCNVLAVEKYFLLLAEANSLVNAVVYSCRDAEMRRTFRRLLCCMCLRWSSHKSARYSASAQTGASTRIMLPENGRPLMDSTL
Method: We investigated structure-activity relationships across species, LPAR subtypes and between Rx100 and two known process impurities encountered in manufacture: Rx103 (‘E’ isomer) and Rx200 (oleyl phosphate and impurity, which can be an Rx100 degradant along with oleyl alcohol). Rx100, Rx103, Rx200 and native LPA were investigated at different human LPAR subtypes. In addition, the activity of these compounds was evaluated at LPA2 receptors from the rhesus, rat and mouse species. Human LPA1/2/3 subtypes were transfected into mouse embryonic fibroblasts (MEF) or rat hepatoma cells (RH7777)—both of which are normally non-responsive or null to LPA. Human LPA4 was transfected into Chinese hamster ovary (CHO) cells and LPA5 into the B103 neuroblastoma cell line. […] The B103 rat neuroblastoma cell line is endogenously nonresponsive to LPA but expresses heterologous LPA5 receptors well. […] LPAR activation elicits a G-protein-mediated transient rise in intracellular calcium level that is proportional to the concentration of LPA applied. The intracellular calcium level was quantified by the calcium-selective fluorescent indicator FURA-2 (e.g., increased intracellular calcium surge=increased fluorescence).

[3] = 28-day repeat-dose subcutaneous toxicity and toxicokinetics in rats; format: in vivo, Sprague Dawley rats; details: Sprague Dawley, rat, plasma, subcutaneous; day 27; lowest dose of 1.81 mg/kg/day
Description: (§1) The remaining 5 rats per group in the control and high dose groups were then allowed a 14-day recovery period following treatment. Parameters evaluated included mortality (twice daily) clinical signs, food consumption (weekly), body weights (weekly), ophthalmoscopy (pre-dosing and prior to necropsy), hematology and clinical chemistry (Week 4), gross pathology, organ weights, and histopathology for all tissues in all dose groups. […] Ophthalmological examinations were unremarkable. […] Secondary changes included increased spleen weights and changes in other male reproductive organs. An increase in adrenal weights may have been related to a stress response. Macroscopic changes at necropsy included small testes (middle and high dose) and lesions apparent at the injection sites in some animals at all dose levels.
(§2) At recovery, only effects in male reproductive organs were evident at the highest dose, with skin lesions still evident in some animals at the highest dose. […] Cmax and AUC were generally higher at the end of the study compared to day 1. No gender differences were apparent.

Sprague Dawley rats = assay: as above; format: in vivo
Description: as §1, §2

[4] = Evaporative crystallization tests, XRPD; format: physicochemical; details: evaporated to dryness under vacuum at ambient conditions
Method: Third, Evaporative Crystallization tests were performed. Based on the short term slurry experiments, all samples which experienced full dissolution were utilized for evaporative crystallizations. Samples were evaporated to dryness under vacuum at ambient conditions.

T1 sequence (Q12809 whole entry): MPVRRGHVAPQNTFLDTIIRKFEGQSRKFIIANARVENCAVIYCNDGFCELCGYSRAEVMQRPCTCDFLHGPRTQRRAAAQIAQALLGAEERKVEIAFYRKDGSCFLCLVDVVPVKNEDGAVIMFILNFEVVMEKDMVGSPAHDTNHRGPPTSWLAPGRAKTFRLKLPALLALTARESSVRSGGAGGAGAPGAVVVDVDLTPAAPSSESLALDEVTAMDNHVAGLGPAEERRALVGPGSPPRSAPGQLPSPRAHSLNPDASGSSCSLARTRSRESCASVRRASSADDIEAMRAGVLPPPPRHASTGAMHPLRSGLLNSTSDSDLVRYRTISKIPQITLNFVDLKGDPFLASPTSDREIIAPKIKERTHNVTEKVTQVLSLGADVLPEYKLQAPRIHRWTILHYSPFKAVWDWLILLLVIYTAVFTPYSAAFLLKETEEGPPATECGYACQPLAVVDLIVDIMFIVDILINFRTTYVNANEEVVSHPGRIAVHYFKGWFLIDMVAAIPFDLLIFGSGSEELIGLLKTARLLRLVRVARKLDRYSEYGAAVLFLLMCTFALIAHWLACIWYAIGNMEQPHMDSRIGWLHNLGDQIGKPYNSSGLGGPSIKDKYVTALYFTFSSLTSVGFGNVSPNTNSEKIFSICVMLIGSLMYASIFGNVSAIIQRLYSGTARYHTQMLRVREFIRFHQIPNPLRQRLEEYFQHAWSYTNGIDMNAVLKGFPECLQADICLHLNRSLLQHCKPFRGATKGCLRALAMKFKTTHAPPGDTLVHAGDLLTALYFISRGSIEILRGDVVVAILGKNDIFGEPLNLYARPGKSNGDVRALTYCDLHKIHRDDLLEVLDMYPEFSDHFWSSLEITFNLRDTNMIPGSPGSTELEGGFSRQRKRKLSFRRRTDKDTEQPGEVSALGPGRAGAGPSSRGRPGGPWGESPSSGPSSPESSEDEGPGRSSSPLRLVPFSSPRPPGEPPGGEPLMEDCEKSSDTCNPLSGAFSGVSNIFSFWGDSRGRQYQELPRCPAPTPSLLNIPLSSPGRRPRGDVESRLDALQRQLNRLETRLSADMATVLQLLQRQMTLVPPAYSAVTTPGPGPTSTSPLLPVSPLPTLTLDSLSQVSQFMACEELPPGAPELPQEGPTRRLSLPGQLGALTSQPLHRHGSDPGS

CCCCCCCC/C=C\CCCCCCCCOP(O)(O)=S [Rx100, (Z)—O-octadec-9-en-1-yl O,O-dihydrogen phosphorothioate]
pIC50 [1]: ~3.22 | hERG IC50 relative to anticipated therapeutic concentrations [1]: 100 fold | pEC50 [2]: 6.78 | Emax ([2]; read-out: Emax (% of LPA)): 100%

CCCCCCCC/C=C\CCCCCCCCOP(O)(O)=S [Rx100.L-Lysine, (Z)—O-octadec-9-en-1-yl O,O-dihydrogen phosphorothioate]
AUC at 27 day [3]: 5040 ng·h/mL | mortality (Sprague Dawley rats; 28 days SC, 1.81, 6.33 and 18.1 (later 12.7) mg/kg/day): All animals survived the treatment period except for one high dose female | injection site lesions (Sprague Dawley rats; 28 days SC, dose relationship to incidence and severity): discoloration, scabbing, and swelling was observed in all treatment groups | clinical chemistry changes (Sprague Dawley rats; at >6.33 mg/kg): mildly lower albumin concentration and A/G ratio, higher globulin concentration and moderately higher triglycerides | liver weights (Sprague Dawley rats; both genders): dose related increased liver weights in the middle and high dose groups | body weight gains (Sprague Dawley rats; high dose): reduced | NOAEL (Sprague Dawley rats; males): could not be clearly established | testicular weights (Sprague Dawley rats; males): dose related decreased testicular weights in all groups of males | hematology, red cell changes (Sprague Dawley rats; middle and high dose levels): lower red cell parameters and higher reticulocyte counts | coagulation studies (Sprague Dawley rats; rat, in vivo): lower APPT in the females at the high dose and higher fibrinogen levels at all doses | hematology, white cell parameters and platelets (Sprague Dawley rats; rat, in vivo): increased leukocyte, neutrophil, eosinophil and basophil counts and increased platelets | histopathology, injection sites (Sprague Dawley rats; rat, in vivo): chronic mixed cell inflammation at all doses | histopathology, liver (Sprague Dawley rats; rat, in vivo): dose related increased hepatocyte vacuolation at all doses | histopathology, testes (Sprague Dawley rats; rat, in vivo): degeneration and necrosis of the seminiferous tubules in all animals at the middle and high dose and in one animal at the low dose | ophthalmological examinations (Sprague Dawley rats; rat, in vivo): unremarkable | toxicokinetics, plasma concentrations (Sprague Dawley rats; rat, in vivo): dose related increases in plasma concentrations | liver enzymes (Sprague Dawley rats; some animals at 18.1/12.7 mg/kg): elevated liver enzymes | Form by XRPD after evaporative crystallization [4]: no change in form
